From ChEMBL document CHEMBL4725382, “Uridine natural products: Challenging targets and inspiration for novel small molecule inhibitors” (Bioorg Med Chem, 2020)
Converted amounts (≈) assume the structure as drawn.

Columns and labels:
[1] = test system: Mycobacterium tuberculosis; experiment: Antimycobacterial activity against Mycobacterium tuberculosis H37Rv ATCC 27294 after 14 days by resazurin reduction microplate assay; assay type: functional; conditions: H37Rv ATCC 27294, 336 h
[2] = test system: Mycobacterium tuberculosis; experiment: Antimycobacterial activity against Mycobacterium tuberculosis H37Rv; assay type: functional

SMILES | MIC [2] | further results
CC[C@H](C)[C@H](NC(=O)N[C@@H](Cc1c[nH]c2ccccc12)C(=O)O)C(=O)N[C@H](C(=O)NC[C@H]1C[C@@H](O)[C@H](n2ccc(=O)[nH]c2=O)O1)[C@H](C)N(C)C(=O)CN | – | MIC50 [1]: 0.93 µM (≈ 0.69 µg/mL)
CCCCc1ccc(NC(=O)C2=CCN(C)[C@@H]([C@H](O[C@@H]3O[C@H](CN)[C@@H](O)[C@H]3O)[C@H]3O[C@@H](n4ccc(=O)[nH]c4=O)[C@H](O)[C@@H]3O)C(=O)N2C)cc1 | 1.09 µM (≈ 0.751 µg/mL) | –
C[C@@H]([C@H](NC(=O)[C@H](Cc1ccc(C(F)(F)F)cc1)NC(=O)N[C@@H](Cc1c[nH]c2ccccc12)C(=O)O)C(=O)NC[C@H]1C[C@@H](O)[C@H](n2ccc(=O)[nH]c2=O)O1)N(C)C(=O)CN | – | MIC50 [1]: 0.2 µM (≈ 0.169 µg/mL)
CCCCCCCCCCCCCCCNC(=O)C1=CCN(C)[C@@H]([C@H](O[C@@H]2O[C@H](CN)[C@@H](O)[C@H]2O)[C@H]2O[C@@H](n3ccc(=O)[nH]c3=O)[C@H](O)[C@@H]2O)C(=O)N1C | 0.98 µM (≈ 0.752 µg/mL) | –
CC(C)C[C@H](NC(=O)N[C@@H](Cc1c[nH]c2ccccc12)C(=O)O)C(=O)N[C@H](C(=O)NC[C@H]1C[C@@H](O)[C@H](n2ccc(=O)[nH]c2=O)O1)[C@H](C)N(C)C(=O)[C@@H](N)Cc1cccc(O)c1 | – | MIC50 [1]: 0.3 µM (≈ 0.254 µg/mL)
CC(C)[C@H](NC(=O)N[C@@H](Cc1c[nH]c2ccccc12)C(=O)O)C(=O)N[C@H](C(=O)N/C=C1/C[C@@H](O)[C@H](n2ccc(=O)[nH]c2=O)O1)[C@H](C)N(C)C(=O)[C@@H](N)Cc1cccc(O)c1 | – | MIC [1]: 9.5 µM (≈ 7.9 µg/mL)
CC(C)C[C@H](NC(=O)N[C@@H](Cc1c[nH]c2ccccc12)C(=O)O)C(=O)N[C@H](C(=O)NC[C@H]1C[C@@H](O)[C@H](n2ccc(=O)[nH]c2=O)O1)[C@H](C)N(C)C(=O)CN | – | MIC50 [1]: 0.63 µM (≈ 0.467 µg/mL)
CCCCCCCCCCCCCCCCCCOC(=O)C1=CCN(C)[C@@H]([C@H](O[C@@H]2O[C@H](CN)[C@@H](O)[C@H]2O)[C@H]2O[C@@H](n3ccc(=O)[nH]c3=O)[C@H](O)[C@@H]2O)C(=O)N1C | 8.45 µM (≈ 6.84 µg/mL) | –
CCc1ccc(NC(=O)C2=CCN(C)[C@@H]([C@H](O[C@@H]3O[C@H](CN)[C@@H](O)[C@H]3O)[C@H]3O[C@@H](n4ccc(=O)[nH]c4=O)[C@H](O)[C@@H]3O)C(=O)N2C)cc1 | 1.09 µM (≈ 0.72 µg/mL) | –
CN1C(=O)[C@H]([C@H](O[C@@H]2O[C@H](CN)[C@@H](O)[C@H]2O)[C@H]2O[C@@H](n3ccc(=O)[nH]c3=O)[C@H](O)[C@@H]2O)N(C)CC=C1C(=O)NC1CCCCCCCCCCC1 | 2.16 µM (≈ 1.56 µg/mL) | –
CCCCCCCC/C=C\CCCCCCCCNC(=O)C1=CCN(C)[C@@H]([C@H](O[C@@H]2O[C@H](CN)[C@@H](O)[C@H]2O)[C@H]2O[C@@H](n3ccc(=O)[nH]c3=O)[C@H](O)[C@@H]2O)C(=O)N1C | 3.88 µM (≈ 3.13 µg/mL) | –
CCCCCCCCCCOC(=O)C1=CCN(C)[C@@H]([C@H](O[C@@H]2O[C@H](CN)[C@@H](O)[C@H]2O)[C@H]2O[C@@H](n3ccc(=O)[nH]c3=O)[C@H](O)[C@@H]2O)C(=O)N1C | 8.45 µM (≈ 5.9 µg/mL) | –
CCCCCCCCNC(=O)C1=CCN(C)[C@@H]([C@H](O[C@@H]2O[C@H](CN)[C@@H](O)[C@H]2O)[C@H]2O[C@@H](n3ccc(=O)[nH]c3=O)[C@H](O)[C@@H]2O)C(=O)N1C | 0.98 µM (≈ 0.655 µg/mL) | –
CCCCCCCCCCCCCNC(=O)C1=CCN(C)[C@@H]([C@H](O[C@@H]2O[C@H](CN)[C@@H](O)[C@H]2O)[C@H]2O[C@@H](n3ccc(=O)[nH]c3=O)[C@H](O)[C@@H]2O)C(=O)N1C | 0.98 µM (≈ 0.724 µg/mL) | –
CCCCCCCCCCCCNC(=O)C1=CCN(C)[C@@H]([C@H](O[C@@H]2O[C@H](CN)[C@@H](O)[C@H]2O)[C@H]2O[C@@H](n3ccc(=O)[nH]c3=O)[C@H](O)[C@@H]2O)C(=O)N1C | 0.98 µM (≈ 0.71 µg/mL) | –
CCCCCCCCCCCCCCCCCCCNC(=O)C1=CCN(C)[C@@H]([C@H](O[C@@H]2O[C@H](CN)[C@@H](O)[C@H]2O)[C@H]2O[C@@H](n3ccc(=O)[nH]c3=O)[C@H](O)[C@@H]2O)C(=O)N1C | 0.98 µM (≈ 0.807 µg/mL) | –
CCCCCCCCCCCCCOC(=O)C1=CCN(C)[C@@H]([C@H](O[C@@H]2O[C@H](CN)[C@@H](O)[C@H]2O)[C@H]2O[C@@H](n3ccc(=O)[nH]c3=O)[C@H](O)[C@@H]2O)C(=O)N1C | 8.45 µM (≈ 6.25 µg/mL) | –
CCCCCCCCCCNC(=O)C1=CCN(C)[C@@H]([C@H](O[C@@H]2O[C@H](CN)[C@@H](O)[C@H]2O)[C@H]2O[C@@H](n3ccc(=O)[nH]c3=O)[C@H](O)[C@@H]2O)C(=O)N1C | 0.98 µM (≈ 0.683 µg/mL) | –
CCCCCCc1ccc(NC(=O)C2=CCN(C)[C@@H]([C@H](O[C@@H]3O[C@H](CN)[C@@H](O)[C@H]3O)[C@H]3O[C@@H](n4ccc(=O)[nH]c4=O)[C@H](O)[C@@H]3O)C(=O)N2C)cc1 | 1.09 µM (≈ 0.781 µg/mL) | –
CCCCCCCCCCCCCCCCNC(=O)C1=CCN(C)[C@@H]([C@H](O[C@@H]2O[C@H](CN)[C@@H](O)[C@H]2O)[C@H]2O[C@@H](n3ccc(=O)[nH]c3=O)[C@H](O)[C@@H]2O)C(=O)N1C | 0.98 µM (≈ 0.765 µg/mL) | –
CCCCCCNC(=O)C1=CCN(C)[C@@H]([C@H](O[C@@H]2O[C@H](CN)[C@@H](O)[C@H]2O)[C@H]2O[C@@H](n3ccc(=O)[nH]c3=O)[C@H](O)[C@@H]2O)C(=O)N1C | 0.98 µM (≈ 0.628 µg/mL) | –

SMILES | MIC [2] | further results
CCCCCCCCCCCCCCCCCCCCCNC(=O)C1=CCN(C)[C@@H]([C@H](O[C@@H]2O[C@H](CN)[C@@H](O)[C@H]2O)[C@H]2O[C@@H](n3ccc(=O)[nH]c3=O)[C@H](O)[C@@H]2O)C(=O)N1C | 0.98 µM (≈ 0.834 µg/mL) | –
CCCCCCCCCCCCCCCCCCNC(=O)C1=CCN(C)[C@@H]([C@H](O[C@@H]2O[C@H](CN)[C@@H](O)[C@H]2O)[C@H]2O[C@@H](n3ccc(=O)[nH]c3=O)[C@H](O)[C@@H]2O)C(=O)N1C | 0.98 µM (≈ 0.793 µg/mL) | –
CCCCCCCCCCCCc1ccc(NC(=O)C2=CCN(C)[C@@H]([C@H](O[C@@H]3O[C@H](CN)[C@@H](O)[C@H]3O)[C@H]3O[C@@H](n4ccc(=O)[nH]c4=O)[C@H](O)[C@@H]3O)C(=O)N2C)cc1 | 1.09 µM (≈ 0.873 µg/mL) | –
Nc1ccc(C2CCCCC2)cc1 | 2.27 µM (≈ 0.398 µg/mL) | –
CCCCCCCCCCCCCCCCCNC(=O)C1=CCN(C)[C@@H]([C@H](O[C@@H]2O[C@H](CN)[C@@H](O)[C@H]2O)[C@H]2O[C@@H](n3ccc(=O)[nH]c3=O)[C@H](O)[C@@H]2O)C(=O)N1C | 0.98 µM (≈ 0.779 µg/mL) | –
CCCCCCCNC(=O)C1=CCN(C)[C@@H]([C@H](O[C@@H]2O[C@H](CN)[C@@H](O)[C@H]2O)[C@H]2O[C@@H](n3ccc(=O)[nH]c3=O)[C@H](O)[C@@H]2O)C(=O)N1C | 0.98 µM (≈ 0.642 µg/mL) | –
CC/C=C\CCCCCCCCCCOC(=O)C1=CCN(C)[C@@H]([C@H](O[C@@H]2O[C@H](CN)[C@@H](O)[C@H]2O)[C@H]2O[C@@H](n3ccc(=O)[nH]c3=O)[C@H](O)[C@@H]2O)C(=O)N1C | 16.6 µM (≈ 12.5 µg/mL) | –
CCCCCCCCCCCCCCNC(=O)C1=CCN(C)[C@@H]([C@H](O[C@@H]2O[C@H](CN)[C@@H](O)[C@H]2O)[C@H]2O[C@@H](n3ccc(=O)[nH]c3=O)[C@H](O)[C@@H]2O)C(=O)N1C | 0.98 µM (≈ 0.738 µg/mL) | –
CCCCCCCCCCCNC(=O)C1=CCN(C)[C@@H]([C@H](O[C@@H]2O[C@H](CN)[C@@H](O)[C@H]2O)[C@H]2O[C@@H](n3ccc(=O)[nH]c3=O)[C@H](O)[C@@H]2O)C(=O)N1C | 0.98 µM (≈ 0.697 µg/mL) | –
C=CCCCCCCCCCOC(=O)C1=CCN(C)[C@@H]([C@H](O[C@@H]2O[C@H](CN)[C@@H](O)[C@H]2O)[C@H]2O[C@@H](n3ccc(=O)[nH]c3=O)[C@H](O)[C@@H]2O)C(=O)N1C | 17.6 µM (≈ 12.5 µg/mL) | –
CCCCCCCCCCCCCCCCCCCCNC(=O)C1=CCN(C)[C@@H]([C@H](O[C@@H]2O[C@H](CN)[C@@H](O)[C@H]2O)[C@H]2O[C@@H](n3ccc(=O)[nH]c3=O)[C@H](O)[C@@H]2O)C(=O)N1C | 0.98 µM (≈ 0.82 µg/mL) | –
CCCCCCCc1ccc(NC(=O)C2=CCN(C)[C@@H]([C@H](O[C@@H]3O[C@H](CN)[C@@H](O)[C@H]3O)[C@H]3O[C@@H](n4ccc(=O)[nH]c4=O)[C@H](O)[C@@H]3O)C(=O)N2C)cc1 | 1.09 µM (≈ 0.797 µg/mL) | –
CCCCOc1ccc(NC(=O)C2=CCN(C)[C@@H]([C@H](O[C@@H]3O[C@H](CN)[C@@H](O)[C@H]3O)[C@H]3O[C@@H](n4ccc(=O)[nH]c4=O)[C@H](O)[C@@H]3O)C(=O)N2C)cc1 | 1.04 µM (≈ 0.733 µg/mL) | –
CCCCOc1ccc(N)cc1 | 2.27 µM (≈ 0.375 µg/mL) | –
CCCCc1ccc(N)cc1 | 2.27 µM (≈ 0.339 µg/mL) | –
CO[C@@H]1[C@@H](OC)[C@H](C)O[C@@H](OC(=O)C[C@@H](C)CC(=O)O[C@@H](CCCCCCCCCCC(C)C)CC(=O)O[C@H]2CN(C)[C@@H]([C@H](O[C@@H]3O[C@H](CN)[C@@H](O)[C@H]3O)[C@H]3O[C@@H](n4ccc(=O)[nH]c4=O)[C@H](O)[C@@H]3O)C(=O)N(C)[C@@H]2C(=O)O)[C@@H]1OC | 2.73 µM (≈ 3.13 µg/mL) | –
CCCCCCCOc1ccc(NC(=O)C2=CCN(C)[C@@H]([C@H](O[C@@H]3O[C@H](CN)[C@@H](O)[C@H]3O)[C@H]3O[C@@H](n4ccc(=O)[nH]c4=O)[C@H](O)[C@@H]3O)C(=O)N2C)cc1 | 0.98 µM (≈ 0.732 µg/mL) | –
CCCCCCCCCNC(=O)C1=CCN(C)[C@@H]([C@H](O[C@@H]2O[C@H](CN)[C@@H](O)[C@H]2O)[C@H]2O[C@@H](n3ccc(=O)[nH]c3=O)[C@H](O)[C@@H]2O)C(=O)N1C | 0.98 µM (≈ 0.669 µg/mL) | –
CN1C(=O)[C@H]([C@H](O[C@@H]2O[C@H](CN)[C@@H](O)[C@H]2O)[C@H]2O[C@@H](n3ccc(=O)[nH]c3=O)[C@H](O)[C@@H]2O)N(C)CC=C1C(=O)Nc1ccc(C2CCCCC2)cc1 | 2.18 µM (≈ 1.56 µg/mL) | –
CCCCCNC(=O)C1=CCN(C)[C@@H]([C@H](O[C@@H]2O[C@H](CN)[C@@H](O)[C@H]2O)[C@H]2O[C@@H](n3ccc(=O)[nH]c3=O)[C@H](O)[C@@H]2O)C(=O)N1C | 0.98 µM (≈ 0.614 µg/mL) | –
